# Measured values taken from US20240180883A1, “TREATMENT OF MIGRAINE” (Allergan Pharmaceuticals International Limited, priority 2020, published 2024).
# “And” between values parts separate entries of the source, which are not always exact repeats. Equal entries are not always repeated. “Also recorded” adds a separate entry of the source. Where two headings read alike, the source gives them in different places.
# Key:
# Assay type in all cases: in vivo, human
# [1] = system: adult patients with migraine; assay: Phase 3 Study 1 (NCT02828020) migraine efficacy
# From the text: In two randomized, double-blind, placebo-controlled, Ph. […] Of the ubrogepant-treated patients in these two studies, approximately 89% were female, 82% were white, 15% were Black, and 17% were of Hispanic or Latino ethnicity. The mean age at study entry was 41 years (range of 18-75 years).
# In all studies, patients were instructed to treat a migraine with moderate to severe headache pain intensity. […] Up to 23% of patients were taking preventive medications for migraine at baseline. None of these patients were on concomitant preventive medication that act on the CGRP pathway.
# The primary efficacy analyses were conducted in patients who treated a migraine with moderate to severe pain. […] Pain freedom was defined as a reduction of moderate or severe headache pain to no pain, and MBS freedom was defined as the absence of the self-identified MBS (i.e., photophobia, phonophobia, or nausea). Among patients who selected an MBS, the most commonly selected was photophobia (56%), followed by phonophobia (24%) and nausea (19%).
# Table 14 also presents the results of the analyses of the percentage of patients achieving pain relief at 2 hours (defined as a reduction in migraine pain from moderate or severe to mild or none) post-dose and the percentage of patients achieving sustained pain freedom between 2 to 24 hours post-dose.
# [2] = Study B: drug interaction PK with rifampin; details: for half-life: read-out: Apparent terminal t1/2, mean (SD) (converted)
# From the text: Study B (rifampin) had two treatment periods. […] All treatments were received under fasted conditions.
# (§1) Healthy adults aged 19-50 years for Study A and 18-45 years for Study B were eligible to participate. […] For study B, participants had to have a BMI between 18.0 and 30 kg/m^2. Exclusion criteria for both studies included hypersensitivity to any study drug; exposure to hepatitis B virus, hepatitis C virus, or HIV; or use of any drug or substance known to affect CYP enzymes or P-gp.
# [3] = Study A: drug interaction PK with verapamil or ketoconazole; details: for AUC(0-inf) / half-life / Cmax / Tmax: human, plasma, oral
# From the text: Study A (verapamil and ketoconazole) comprised 3 treatment periods.
# as §1
# Study A: safety = assay: Study A: safety
# Description: Study A (verapamil and ketoconazole) comprised 3 treatment periods. […] Ubrogepant was administered under fasted conditions.
# [4] = coadministered with rifampin 600 mg vs alone
# [5] = ubrogepant 100 mg + rifampin 600 mg
# [6] = ubrogepant 100 mg alone, listed as Ubrogepant
structure (smiles),measurement,setting,value
"C[C@@H]1[C@H](c2ccccc2)C[C@H](NC(=O)c2cnc3c(c2)C[C@@]2(C3)C(=O)Nc3ncccc32)C(=O)N1CC(F)(F)F [ubrogepant, (3′S)-N-((3S,5S,6R)-6-methyl-2-oxo-5-phenyl-1-(2,2,2-trifluoroethyl)piperidin-3-yl)-2′-oxo-1′,2′,5,7-etrahydrospiro[cyclopenta[b]pyridine-6,3′-pyrrolo[2,3-b]pyridine]-3-carboxamide]","Most Bothersome Symptom Free at 2 hours, % Responders","[1]; Study 1, 50 mg",38.6%
same,"Most Bothersome Symptom Free at 2 hours, Difference from Placebo","[1]; Study 1, 50 mg",10.8%
same,"Pain Relief at 2 hours, % Responders","[1]; Study 1, 50 mg",60.7%
same,"Pain free at 2 hours, % Responders","[1]; Study 1, 50 mg",19.2%
same,"Pain free at 2 hours, Difference from Placebo","[1]; Study 1, 50 mg",7.4%
same,"Sustained pain freedom at 2-24 hours, % Responders","[1]; Study 1, 50 mg",12.7%
same,"Most Bothersome Symptom Free at 2 hours, % Responders","[1]; Study 1, 100 mg",37.7%
same,"Most Bothersome Symptom Free at 2 hours, Difference from Placebo","[1]; Study 1, 100 mg",9.9%
same,"Pain Relief at 2 hours, % Responders","[1]; Study 1, 100 mg",61.4%
same,"Pain free at 2 hours, % Responders","[1]; Study 1, 100 mg",21.2%
same,"Pain free at 2 hours, Difference from Placebo","[1]; Study 1, 100 mg",9.4%
same,"Sustained pain freedom at 2-24 hours, % Responders","[1]; Study 1, 100 mg",15.4%
same,incidence of photophobia and phonophobia compared to placebo,[1]; both doses (50 and 100 mg),reduced
same,reduction in ubrogepant AUC0-t,[2]; [4],78%
same,reduction in ubrogepant Cmax,[2]; [4],69%
same,AUC(0-t),"[2]; human, plasma, oral, 100 mg, ubrogepant 100 mg alone, read-out: AUC0-t, mean (SD)",1880 ng·h/mL
same,AUC(0-inf),"[2]; human, plasma, oral, 100 mg, ubrogepant 100 mg alone, read-out: AUC0-∞, mean (SD)",1910 ng·h/mL
same,half-life,"[2]; human, plasma, oral, 100 mg, ubrogepant 100 mg alone",4.4 h
same,Cmax,"[2]; human, plasma, oral, 100 mg, ubrogepant 100 mg alone, read-out: Cmax, mean (SD)",416 ng/mL
same,AUC(0-t),"[2]; human, plasma, oral, 100 mg, ubrogepant 100 mg alone, read-out: Geometric LSM AUC0-t, Reference",1720 ng·h/mL
same,AUC(0-inf),"[2]; human, plasma, oral, 100 mg, ubrogepant 100 mg alone, read-out: Geometric LSM AUC0-∞, Reference",1750 ng·h/mL
same,Cmax,"[2]; human, plasma, oral, 100 mg, ubrogepant 100 mg alone, read-out: Geometric LSM Cmax, Reference",375 ng/mL
same,Tmax,"[2]; human, plasma, oral, 100 mg, read-out: Tmax, median (range)",2 h
same,Vd/F,"[2]; human, plasma, oral, 100 mg, read-out: Vz/F",390 ± 174 L
same,AUC(0-t),"[2]; human, plasma, oral, rifampin 600 mg in combination with ubrogepant 100 mg, read-out: Geometric LSM AUC0-t, Test",378 ng·h/mL
same,AUC(0-inf),"[2]; human, plasma, oral, rifampin 600 mg in combination with ubrogepant 100 mg, read-out: Geometric LSM AUC0-∞, Test",379 ng·h/mL
same,Cmax,"[2]; human, plasma, oral, rifampin 600 mg in combination with ubrogepant 100 mg, read-out: Geometric LSM Cmax, Test",118 ng/mL
same,AUC(0-t),"[2]; human, plasma, oral, ubrogepant 100 mg + rifampin 600 mg, read-out: AUC0-t, mean (SD)",396 ng·h/mL
same,AUC(0-inf),"[2]; human, plasma, oral, ubrogepant 100 mg + rifampin 600 mg, read-out: AUC0-∞, mean (SD)",397 ng·h/mL
same,half-life,"[2]; human, plasma, oral, ubrogepant 100 mg + rifampin 600 mg",3 h
same,Cmax,"[2]; human, plasma, oral, ubrogepant 100 mg + rifampin 600 mg, read-out: Cmax, mean (SD)",136 ng/mL
same,"Apparent terminal t1/2, mean (SD)",[2]; [5],3.04 (0.64) h
same,CL/F,[2]; [5],282.87 ± 103.74 L/h
same,CL/F,[2]; ubrogepant 100 mg alone,62.77 ± 28.33 L/h
same,"Tmax, median (range)",[2]; ubrogepant 100 mg alone,2 h
same,"Apparent terminal t1/2, mean (SD)",[2]; [6],4.36 (0.75) h
same,"Tmax, median (range)",[2]; [6],2.00 (1.00-4.00) h
same,exposure of ubrogepant on co-administration,"[2]; with rifampin, a strong CYP3A4 inducer",significant reduction in ubrogepant exposure
same,increase in ubrogepant Cmax,[3]; coadministered with verapamil 240 mg vs alone,~2.8 fold
same,AUC(0-inf),"[3]; 20 mg, ubrogepant 20 mg alone (Table 9), read-out: AUC0-∞, AM",213 ng·h/mL
same,AUC(0-inf),"[3]; 20 mg, ubrogepant 20 mg alone, read-out: AUC0-∞, mean (SD)",213 ng·h/mL
same,half-life,"[3]; 20 mg, ubrogepant 20 mg alone, read-out: Apparent terminal t1/2, mean (SD) (converted)",2.5 h
same,Cmax,"[3]; 20 mg, ubrogepant 20 mg alone, read-out: Cmax, mean (SD)",45.2 ng/mL
same,Tmax,"[3]; 20 mg, ubrogepant 20 mg alone, read-out: Tmax, median (range)",2 h
same,AUC(0-inf),"[3]; ubrogepant 20 mg + ketoconazole 400 mg, read-out: AUC0-∞, mean (SD)",2070 ng·h/mL
same,half-life,"[3]; ubrogepant 20 mg + ketoconazole 400 mg, read-out: Apparent terminal t1/2, mean (SD) (converted)",5.9 h
same,Cmax,"[3]; ubrogepant 20 mg + ketoconazole 400 mg, read-out: Cmax, mean (SD)",240 ng/mL
same,Tmax,"[3]; ubrogepant 20 mg + ketoconazole 400 mg, read-out: Tmax, median (range)",2.5 h
same,AUC(0-inf),"[3]; ubrogepant 20 mg with verapamil 240 mg, read-out: AUC0-∞, AM",742 ng·h/mL
same,half-life,"[3]; ubrogepant 20 mg with verapamil 240 mg, read-out: Apparent terminal t1/2, AM (converted)",4.29 h
same,Cmax,"[3]; ubrogepant 20 mg with verapamil 240 mg, read-out: Cmax, AM",125 ng/mL
same,Tmax,"[3]; ubrogepant 20 mg with verapamil 240 mg, read-out: Tmax",2 h
same,"Apparent terminal t1/2, mean (SD)",[3]; ubrogepant 20 mg + ketoconazole 400 mg,6.00 (1.27) h
same,"Apparent terminal t1/2, mean (SD)",[3]; ubrogepant 20 mg alone,2.52 (0.56) h and 2.52 h
same,exposure of ubrogepant on co-administration,"[3]; with ketoconazole, a strong CYP3A4 inhibitor",significant increase in exposure
same,exposure of ubrogepant on co-administration,"[3]; with verapamil, a moderate CYP3A4 inhibitor",increase in ubrogepant exposure
same,elevations in serum transaminases or bilirubin,Study A: safety; Study A,no participants experienced elevations in serum transaminases or bilirubin greater than or equal to 2-fold ULN
same,total TEAEs reported,"Study A: safety; Study A, all treatment periods",39 TEAEs
same,safety and tolerability,"Study A: safety; single oral dose coadministered with multiple doses of verapamil or ketoconazole, healthy adults",safe and generally well tolerated; also recorded: safe and generally well-tolerated
